Where a name gives a salt, the structure may show the parent alone.
Experiment: collision cross section in nitrogen (drift tube, single-field); higher = larger gas-phase ion size
[1] = ion type: [M-H], ion source: ESI, ion mode: Negative
[2] = ion type: [M+H], ion source: ESI, ion mode: Positive
[3] = ion type: [M+Na], ion source: ESI, ion mode: Positive
[4] = ion type: [M+H], ion source: APCI, ion mode: Positive
[5] = ion source: ESI, ion mode: Positive, ion type: [M]+ (permanent cation)
[6] = ion type: [M+], ion source: APCI, ion mode: Positive
[7] = ion source: APCI, ion mode: Positive, ion type: [M]+ (permanent cation)
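Note: chemical standards at 10 µM analysed by drift tube IMS-QTOF MS in about 3.95 torr nitrogen, mean of duplicate injections differing ≤1%, mass error below 10 ppm.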

collision cross section in nitrogen [1] [Å²] | collision cross section in nitrogen [2] [Å²] | collision cross section in nitrogen [3] [Å²] | collision cross section in nitrogen [4] [Å²] | Compound | other results
159.6 |  |  |  | Oc1ccc(C2COc3cc(O)ccc3C2)cc1 (racemic) [(R,S)-Equol] | 
 | 226.4 | 222 |  | CC(=O)Oc1c(C)c(C)c2c(c1C)CC[C@@](C)(CCC[C@H](C)CCC[C@H](C)CCCC(C)C)O2 (racemic) [dl-alpha-Tocopheryl acetate] | 
 |  | 168.7 |  | O=C1CCCCCN1SSN1CCCCCC1=O [1,1'-Disulfanediyldiazepan-2-one] | 
 | 146.7 |  | 145.8 | CC1=Nc2ccc3ccccc3c2C1(C)C [1,1,2-Trimethyl-1H-benzo[e]indole] | 
 | 177.9 | 194 | 177.3 | CCCCN(CCCC)C(=O)N(CCCC)CCCC [1,1,3,3-Tetrabutylurea] | 
217.2 |  | 218.4 |  | Oc1ccc(C2(c3ccc(O)c(C4CCCCC4)c3)CCCCC2)cc1C1CCCCC1 [1,1-Bis(3-cyclohexyl-4-hydroxyphenyl)cyclohexane] | 
 |  |  |  | C[N+]1(C)CCCCC1 [1,1-Dimethylpiperidinium chloride] | collision cross section in nitrogen [5]: 121.2 Å²
168.6 | 166.8 | 168.6 | 166.8 | CC(O)CN(CCN(CC(C)O)CC(C)O)CC(C)O (stereo not drawn) [1,1′,1′′,1′′′-(Ethylenedinitrilo)tetrakis(2-propanol)] | 
 | 136.9 |  | 136 | CN1C(C)(C)CC(O)CC1(C)C [1,2,2,6,6-Pentamethylpiperidin-4-ol] | 
132.6 |  |  |  | O=C1NC(=O)C2CC=CCC12 (stereo not drawn) [1,2,3,6-Tetrahydrophthalimide] | 
126.4 |  |  |  | O=c1nn[nH]c2ccccc12 [1,2,3-Benzotriazin-4(1H)-one] | 
118.9 | 122.2 |  | 120.7 | c1ccc2[nH]nnc2c1 [1,2,3-Benzotriazole] | 
136.9 |  |  |  | O=C(O)c1ccc(C(=O)O)c(C(=O)O)c1 [1,2,4-Benzenetricarboxylic acid] | 
127.2 |  |  |  | O=c1[nH]sc2ccccc12 [1,2-Benzisothiazolin-3-one] | 
131.2 | 133.8 | 144.6 |  | CC1=C(C#N)C(=O)N(C)C(=O)C1 [1,2-Dihydro-6-hydroxy-1,4-dimethyl-2-oxonicotinonitrile] | 
 | 128 |  |  | Cc1ncc([N+](=O)[O-])n1C [1,2-Dimethyl-5-nitroimidazole] | 
121.6 |  |  |  | Oc1cc(O)cc(O)c1 [1,3,5-Trihydroxybenzene dihydrate] | 
133.2 |  |  |  | O=C(O)c1cccc(C(=O)O)c1 [1,3-Benzenedicarboxylic acid] | 
121.3 | 122.6 |  |  | O=C1CCCC(=O)C1 [1,3-Cyclohexanedione] | 
 | 145.1 |  | 144.6 | CN1C(=CC=O)C(C)(C)c2ccccc21 [1,3-Dihydro-1,3,3-trimethyl-2H-indol-2-ylidene acetaldehyde] | collision cross section in nitrogen [6]: 143.2 Å²
190.8 | 185.4 | 196.6 |  | Cc1cc(C2(c3ccc(O)c(C)c3)C(=O)Nc3ccccc32)ccc1O [1,3-Dihydro-3,3-bis(4-hydroxy-m-tolyl)-2H-indol-2-one] | 
 | 140.1 |  |  | N=C1NC(=N)c2cc3ccccc3cc21 [1,3-Diiminobenz(f)isoindoline] | 
154.4 |  | 165.9 |  | O=C(CC(=O)c1ccccc1)c1ccccc1 [1,3-Diphenyl-1,3-propanedione] | 
 | 168.2 |  | 167.2 | Nc1ccc(Oc2cccc(Oc3ccc(N)cc3)c2)cc1 [1,3-Phenylenedi(4-aminophenyl ether)] | collision cross section in nitrogen [6]: 177.7 Å²
166.6 |  | 188.2 |  | Nc1ccc(C(=O)OCCCOC(=O)c2ccc(N)cc2)cc1 [1,3-Propanediyl bis(p-aminobenzoate)] | 
 | 179.4 |  | 179.1 | CC(C)Nc1ccc(NC(C)C)c2c1C(=O)c1ccccc1C2=O [1,4-Bis(N-isopropylamino)anthraquinone] | collision cross section in nitrogen [6]: 178.2 Å²
 | 192.8 | 207.7 | 192.4 | CCCCNc1ccc(NCCCC)c2c1C(=O)c1ccccc1C2=O [1,4-Bis(butylamino)anthracene-9,10-dione] | collision cross section in nitrogen [6]: 190.2 Å²

collision cross section in nitrogen [1] [Å²] | collision cross section in nitrogen [2] [Å²] | collision cross section in nitrogen [3] [Å²] | collision cross section in nitrogen [4] [Å²] | Compound | other results
136.1 |  |  |  | O=C(O)C1CCC(C(=O)O)CC1 (stereo not drawn) [1,4-Cyclohexanedicarboxylic acid] | 
149.1 | 151.5 |  | 151.4 | Nc1ccc(N)c2c1C(=O)c1ccccc1C2=O [1,4-Diaminoanthraquinone] | collision cross section in nitrogen [6]: 147.5 Å²
148.9 |  |  |  | O=C1c2ccccc2C(=O)c2c(O)ccc(O)c21 [1,4-Dihydroxyanthracene-9,10-dione] | 
 | 150.2 |  | 150.3 | NCCCN1CCN(CCCN)CC1 [1,4-Piperazinedipropanamine] | 
159.4 |  |  |  | Nc1ccc2c(S(=O)(=O)O)cccc2c1S(=O)(=O)O [1,5-Naphthalenedisulfonic acid, 2-amino-, sodium salt (1:1)] | 
156.3 |  |  |  | O=S(=O)(O)c1cccc2c(S(=O)(=O)O)cccc12 [1,5-Naphthalenedisulfonic acid, disodium salt hydrate] | 
 |  | 157.7 |  | C=CC(=O)OCCCCCCOC(=O)C=C [1,6-Hexanediol diacrylate] | 
 |  | 167.3 |  | C=C(C)C(=O)OCCCCCCOC(=O)C(=C)C [1,6-Hexanediol dimethacrylate] | 
136.8 |  |  | 134.2 | Cn1c(=O)[nH]c2ncn(C)c2c1=O [1,7-Dimethylxanthine] | 
 |  | 184.9 |  | C=C(C)C(=O)OCCCCCCCCCCOC(=O)C(=C)C [1,10-Decanediol dimethacrylate] | 
 | 131.6 | 145.7 | 131.8 | c1cnc2c(c1)ccc1cccnc12 [1,10-Phenanthroline hydrochloride hydrate] | 
 | 132.4 | 146 | 131.3 | c1cnc2c(c1)ccc1cccnc12 [1,10-Phenanthroline] | 
116.1 |  |  |  | Oc1ccccc1O [1,2-Benzenediol] | 
 |  |  | 129.2 | CC(=O)c1sc(C)nc1C [1-(2,4-Dimethyl-1,3-thiazol-5-yl)ethanone] | 
 |  |  | 153.5 | O=C1Cc2ccccc2N1c1c(Cl)cccc1Cl [1-(2,6-Dichlorophenyl)-2-indolinone] | 
130.1 |  |  |  | CC(=O)c1ccc(O)cc1Br [1-(2-Bromo-4-hydroxyphenyl)ethanone] | 
 |  |  | 143.3 | CCC(=O)C=Cc1ccc(OC)cc1 [1-(4-Methoxyphenyl)-1-pentene-3-one] | 
 | 151.6 |  |  | CNc1cccc2c1C(=O)c1ccccc1C2=O [1-(Methylamino)anthraquinone] | 
 | 144.7 | 148.5 | 144.7 | Cc1ccccc1NC(=N)NC(=N)N [1-(o-Tolyl)biguanide] | 
 |  | 172.2 |  | CC=Cc1ccc(OCc2ccccc2)c(OC)c1 [1-Benzyloxy-2-methoxy-4-(1-propenyl)benzene] | 
 |  |  |  | c1ccc(C[n+]2cccc3ccccc32)cc1 [1-Benzylquinolinium chloride] | collision cross section in nitrogen [7]: 147.6 Å²; collision cross section in nitrogen [5]: 148 Å²
 |  |  |  | CCCC[N+]1(C)CCCC1 [1-Butyl-1-methylpyrrolidinium chloride] | collision cross section in nitrogen [7]: 131.2 Å²; collision cross section in nitrogen [5]: 132.4 Å²
 |  |  |  | CCCCn1cc[n+](C)c1 [1-Butyl-3-methylimidazolium chloride] | collision cross section in nitrogen [7]: 129 Å²; collision cross section in nitrogen [5]: 128.9 Å²
 | 140.3 | 157.7 | 139.2 | O=C1CCCN1C1CCCCC1 [1-Cyclohexylpyrrolidin-2-one] | 
 | 164 |  |  | CCCCCCCCCCCCN [1-Dodecanamine] | 
 | 176.3 | 176.6 |  | CCCCCCCCCCCCN1CCCC1=O [1-Dodecyl-2-pyrrolidinone] | 
 |  |  | 121.7 | CCN1CCCC1=O [1-Ethyl-2-pyrrolidinone] | 

Compound | collision cross section in nitrogen [1] [Å²] | collision cross section in nitrogen [2] [Å²] | collision cross section in nitrogen [3] [Å²] | collision cross section in nitrogen [4] [Å²] | other results
Clc1cccc(Cl)c1Cl [1,2,3-Trichlorobenzene] |  |  | 144.8 |  | 
O=C(NCO)NCO [1,3-Dimethylolurea] |  |  | 151.7 |  | 
O=[N+]([O-])c1cc([N+](=O)[O-])c2ccccc2c1 [1,3-Dinitronaphthalene] | 138.9 |  |  |  | 
N=C(Nc1ccccc1)Nc1ccccc1 [1,3-Diphenylguanidine] |  | 150.8 |  | 150.7 | 
Cc1ccc2c(c1N)C(=O)c1ccccc1C2=O [1-Amino-2-methylanthraquinone] | 150.1 | 153.2 |  | 153.6 | collision cross section in nitrogen [6]: 147.6 Å²
FC(F)(F)c1ccc(Cl)cc1 [1-Chloro-4-(trifluoromethyl)benzene] |  | 142.6 |  |  | 

From the supplement of paper PMC12317010
